In this test the test system is Gram-positive bacterial strains. Kind of test: activity against Gram-positive bacterial strains. Format: cell-based. The note with it: compound produced by AQP4511 in PDY medium supplemented with 0.5 mM NaNO3. The method, then: A Streptomyces sp. strain AQP4511 produced a red orange compound, which has a naphthoquinone structure, in a PDY medium supplemented with 0.5 mM NaNO3.

Each structure is given as a SMILES string.

In the case of `COc1cc(O)c2c(c1)C(=O)C1=C(C2=O)C(OC(C)=O)C(O)C(C)O1` (stereo not shown) [Gunacin], the “activity against most of Gram-positive bacterial strains” value is “very strong activity”.

For the origin of these results see patent publication US20100144003A1, “INDUCTION OF MICROBIAL SECONDARY METABOLITES” (AQUAPHARM BIO-DISCOVERY LIMITED, priority 2007, published 2010).
